# Columns and labels:
# Format in all cases: cell-based
# HIPK4 = HIPK4 (Homo sapiens, UniProt Q8NE63); conditions: HEK-293T; 1 μM inhibitor, HEK293T cells
# In short: (§1)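 Tracer K10 competition in live HEK293T cells transiently expressing each K192 kinase construct (20 h). Compound tested at 1 μM; occupancy derived from donor/acceptor luminescence ratio.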
# TNNI3K = TNNI3K (Homo sapiens, UniProt Q59H18); conditions: HEK-293T; 1 μM inhibitor, HEK293T cells
# In short: as §1
# HIPK2 = HIPK2 (Homo sapiens, UniProt Q9H2X6); conditions: HEK-293T; 1 μM inhibitor, HEK293T cells
# In short: as §1
# RPS6KA3 = RPS6KA3 (Homo sapiens, UniProt P51812); conditions: HEK-293T; 1 μM inhibitor, HEK293T cells
# In short: as §1
# RET = RET (Homo sapiens, UniProt P07949); conditions: HEK-293T; 1 μM inhibitor, HEK293T cells
# In short: as §1
# GAK = GAK (Homo sapiens, UniProt O14976); conditions: HEK-293T; 1 μM inhibitor, HEK293T cells
# In short: as §1
# STK17B = STK17B (Homo sapiens, UniProt O94768); conditions: HEK-293T; 1 μM inhibitor, HEK293T cells
# Sequence of STK17B (O94768 whole entry): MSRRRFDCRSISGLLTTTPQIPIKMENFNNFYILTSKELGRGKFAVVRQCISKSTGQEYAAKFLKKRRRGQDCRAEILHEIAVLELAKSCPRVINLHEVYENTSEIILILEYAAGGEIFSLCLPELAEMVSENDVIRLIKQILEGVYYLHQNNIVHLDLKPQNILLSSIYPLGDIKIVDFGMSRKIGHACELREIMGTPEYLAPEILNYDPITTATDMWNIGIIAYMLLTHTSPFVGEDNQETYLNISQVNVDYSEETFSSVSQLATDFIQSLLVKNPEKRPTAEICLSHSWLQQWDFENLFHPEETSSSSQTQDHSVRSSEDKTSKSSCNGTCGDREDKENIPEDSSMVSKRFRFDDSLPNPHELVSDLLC
# In short: as §1
# BMP2K = BMP2K (Homo sapiens, UniProt Q9NSY1); conditions: HEK-293T; 1 μM inhibitor, HEK293T cells
# In short: as §1
# RPS6KA6 = RPS6KA6 (Homo sapiens, UniProt Q9UK32); conditions: HEK-293T; 1 μM inhibitor, HEK293T cells
# In short: as §1
# MAST3 = MAST3 (Homo sapiens, UniProt O60307); conditions: HEK-293T; 1 μM inhibitor, HEK293T cells
# In short: as §1
# CSNK1A1L = CSNK1A1L (Homo sapiens, UniProt Q8N752); conditions: HEK-293T; 1 μM inhibitor, HEK293T cells
# In short: as §1
# CDK20 = CDK20 (Homo sapiens, UniProt Q8IZL9); conditions: HEK-293T; 1 μM inhibitor, HEK293T cells
# Sequence of CDK20 (Q8IZL9 whole entry): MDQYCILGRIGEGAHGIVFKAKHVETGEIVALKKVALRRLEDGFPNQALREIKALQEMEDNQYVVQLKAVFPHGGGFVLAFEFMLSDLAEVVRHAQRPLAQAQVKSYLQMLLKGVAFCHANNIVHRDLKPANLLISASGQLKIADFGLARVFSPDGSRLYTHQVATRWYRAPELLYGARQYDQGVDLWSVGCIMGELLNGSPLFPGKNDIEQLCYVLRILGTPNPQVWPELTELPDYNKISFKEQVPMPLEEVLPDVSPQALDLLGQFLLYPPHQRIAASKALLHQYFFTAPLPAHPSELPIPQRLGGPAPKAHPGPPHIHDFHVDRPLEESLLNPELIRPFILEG
# Sequence of CDK20 (P51946 whole entry, further chain): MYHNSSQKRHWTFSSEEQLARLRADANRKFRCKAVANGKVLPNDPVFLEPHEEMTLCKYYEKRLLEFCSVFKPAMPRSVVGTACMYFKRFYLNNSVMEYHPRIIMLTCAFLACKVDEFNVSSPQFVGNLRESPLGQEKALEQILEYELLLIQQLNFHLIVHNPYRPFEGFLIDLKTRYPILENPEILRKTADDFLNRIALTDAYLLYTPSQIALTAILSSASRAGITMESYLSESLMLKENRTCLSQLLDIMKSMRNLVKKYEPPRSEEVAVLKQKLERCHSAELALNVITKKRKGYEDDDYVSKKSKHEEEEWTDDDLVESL
# In short: as §1
# AURKB = AURKB (Homo sapiens, UniProt Q96GD4); conditions: HEK-293T; 1 μM inhibitor, HEK293T cells
# In short: as §1
# CDK5 = CDK5 (Homo sapiens, UniProt Q00535); conditions: HEK-293T; 1 μM inhibitor, HEK293T cells
# Sequence of CDK5 (Q15078 whole entry): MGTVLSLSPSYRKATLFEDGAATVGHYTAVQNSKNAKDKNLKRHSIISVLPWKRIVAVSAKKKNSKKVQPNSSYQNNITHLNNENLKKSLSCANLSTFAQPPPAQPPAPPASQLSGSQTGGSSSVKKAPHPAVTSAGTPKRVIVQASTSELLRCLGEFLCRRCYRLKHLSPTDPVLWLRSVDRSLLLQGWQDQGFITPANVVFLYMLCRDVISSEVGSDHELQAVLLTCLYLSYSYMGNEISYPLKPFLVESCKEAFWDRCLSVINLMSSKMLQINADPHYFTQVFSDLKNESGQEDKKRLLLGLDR
# Sequence of CDK5 (Q00535 whole entry): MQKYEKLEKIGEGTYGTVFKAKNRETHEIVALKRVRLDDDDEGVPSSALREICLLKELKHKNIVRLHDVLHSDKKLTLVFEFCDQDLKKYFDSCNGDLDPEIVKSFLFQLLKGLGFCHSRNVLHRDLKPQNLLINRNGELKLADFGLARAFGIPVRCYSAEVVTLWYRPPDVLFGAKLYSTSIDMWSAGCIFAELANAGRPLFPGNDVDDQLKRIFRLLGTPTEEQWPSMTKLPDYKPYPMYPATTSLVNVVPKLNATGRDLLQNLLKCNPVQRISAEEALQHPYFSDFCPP
# In short: as §1
# AXL = AXL (Homo sapiens, UniProt P30530); conditions: HEK-293T; 1 μM inhibitor, HEK293T cells
# In short: as §1
# TNK2(iso1) = TNK2(iso1) (Homo sapiens, UniProt Q07912); conditions: HEK-293T; 1 μM inhibitor, HEK293T cells
# In short: as §1
# MAP4K5 = MAP4K5 (Homo sapiens, UniProt Q9Y4K4); conditions: HEK-293T; 1 μM inhibitor, HEK293T cells
# In short: as §1
# PTK2B = PTK2B (Homo sapiens, UniProt Q14289); conditions: HEK-293T; 1 μM inhibitor, HEK293T cells
# In short: as §1
# EPHA1 = EPHA1 (Homo sapiens, UniProt P21709); conditions: HEK-293T; 1 μM inhibitor, HEK293T cells
# In short: as §1
# SNF1LK2 = SNF1LK2 (Homo sapiens, UniProt Q9H0K1); conditions: HEK-293T; 1 μM inhibitor, HEK293T cells
# In short: as §1
# ABL2 = ABL2 (Homo sapiens, UniProt P42684); conditions: HEK-293T; 1 μM inhibitor, HEK293T cells
# Sequence of ABL2 (P42684 whole entry): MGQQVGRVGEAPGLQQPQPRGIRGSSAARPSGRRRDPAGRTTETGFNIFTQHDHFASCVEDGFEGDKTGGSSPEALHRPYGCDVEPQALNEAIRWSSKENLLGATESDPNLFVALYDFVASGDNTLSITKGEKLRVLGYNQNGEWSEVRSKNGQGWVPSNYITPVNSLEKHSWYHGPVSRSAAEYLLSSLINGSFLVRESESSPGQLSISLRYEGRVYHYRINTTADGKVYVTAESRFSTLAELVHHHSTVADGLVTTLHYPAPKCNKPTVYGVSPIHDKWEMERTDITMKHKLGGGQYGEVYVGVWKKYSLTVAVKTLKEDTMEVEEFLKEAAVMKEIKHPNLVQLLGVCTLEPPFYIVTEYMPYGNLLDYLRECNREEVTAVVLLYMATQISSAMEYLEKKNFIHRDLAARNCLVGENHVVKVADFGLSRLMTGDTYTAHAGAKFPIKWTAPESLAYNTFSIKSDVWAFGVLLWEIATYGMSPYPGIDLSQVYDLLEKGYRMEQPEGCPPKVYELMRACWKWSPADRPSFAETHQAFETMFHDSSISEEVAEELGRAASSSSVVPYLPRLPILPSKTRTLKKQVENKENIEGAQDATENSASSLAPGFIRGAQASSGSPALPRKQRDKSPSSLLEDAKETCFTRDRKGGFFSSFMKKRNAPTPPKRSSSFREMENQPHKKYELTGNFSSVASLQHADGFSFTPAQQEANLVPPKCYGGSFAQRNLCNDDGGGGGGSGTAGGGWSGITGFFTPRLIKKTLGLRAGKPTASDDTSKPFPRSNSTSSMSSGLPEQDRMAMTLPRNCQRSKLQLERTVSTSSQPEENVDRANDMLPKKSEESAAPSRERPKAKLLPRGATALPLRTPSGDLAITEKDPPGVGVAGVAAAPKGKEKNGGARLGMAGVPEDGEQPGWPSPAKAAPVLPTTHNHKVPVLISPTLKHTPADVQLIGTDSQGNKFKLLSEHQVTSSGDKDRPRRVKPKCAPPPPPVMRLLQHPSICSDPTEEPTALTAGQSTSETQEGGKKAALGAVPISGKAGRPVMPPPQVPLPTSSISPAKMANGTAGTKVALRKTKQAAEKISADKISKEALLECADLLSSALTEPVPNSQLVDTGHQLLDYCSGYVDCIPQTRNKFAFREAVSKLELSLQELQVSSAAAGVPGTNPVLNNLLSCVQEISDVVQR
# In short: as §1
# PKMYT1 = PKMYT1 (Homo sapiens, UniProt Q99640); conditions: HEK-293T; 1 μM inhibitor, HEK293T cells
# In short: as §1
# BRSK1 = BRSK1 (Homo sapiens, UniProt Q8TDC3); conditions: HEK-293T; 1 μM inhibitor, HEK293T cells
# In short: as §1
# ULK2 = ULK2 (Homo sapiens, UniProt Q8IYT8); conditions: HEK-293T; 1 μM inhibitor, HEK293T cells
# In short: as §1
# MAP3K2 = MAP3K2 (Homo sapiens, UniProt Q9Y2U5); conditions: HEK-293T; 1 μM inhibitor, HEK293T cells
# In short: as §1
# STK36 = STK36 (Homo sapiens, UniProt Q9NRP7); conditions: HEK-293T; 1 μM inhibitor, HEK293T cells
# In short: as §1
# EPHA6 = EPHA6 (Homo sapiens, UniProt Q9UF33); conditions: HEK-293T; 1 μM inhibitor, HEK293T cells
# In short: as §1
# LTK = LTK (Homo sapiens, UniProt P29376); conditions: 1 μM inhibitor, HEK293T cells
# In short: as §1
# MAP3K4 = MAP3K4 (Homo sapiens, UniProt Q9Y6R4); conditions: HEK-293T; 1 μM inhibitor, HEK293T cells
# In short: as §1
# MAPK11 = MAPK11 (Homo sapiens, UniProt Q15759); conditions: HEK-293T; 1 μM inhibitor, HEK293T cells
# In short: as §1
# HIPK3 = HIPK3 (Homo sapiens, UniProt Q9H422); conditions: HEK-293T; 1 μM inhibitor, HEK293T cells
# Sequence of HIPK3 (Q9H422 whole entry): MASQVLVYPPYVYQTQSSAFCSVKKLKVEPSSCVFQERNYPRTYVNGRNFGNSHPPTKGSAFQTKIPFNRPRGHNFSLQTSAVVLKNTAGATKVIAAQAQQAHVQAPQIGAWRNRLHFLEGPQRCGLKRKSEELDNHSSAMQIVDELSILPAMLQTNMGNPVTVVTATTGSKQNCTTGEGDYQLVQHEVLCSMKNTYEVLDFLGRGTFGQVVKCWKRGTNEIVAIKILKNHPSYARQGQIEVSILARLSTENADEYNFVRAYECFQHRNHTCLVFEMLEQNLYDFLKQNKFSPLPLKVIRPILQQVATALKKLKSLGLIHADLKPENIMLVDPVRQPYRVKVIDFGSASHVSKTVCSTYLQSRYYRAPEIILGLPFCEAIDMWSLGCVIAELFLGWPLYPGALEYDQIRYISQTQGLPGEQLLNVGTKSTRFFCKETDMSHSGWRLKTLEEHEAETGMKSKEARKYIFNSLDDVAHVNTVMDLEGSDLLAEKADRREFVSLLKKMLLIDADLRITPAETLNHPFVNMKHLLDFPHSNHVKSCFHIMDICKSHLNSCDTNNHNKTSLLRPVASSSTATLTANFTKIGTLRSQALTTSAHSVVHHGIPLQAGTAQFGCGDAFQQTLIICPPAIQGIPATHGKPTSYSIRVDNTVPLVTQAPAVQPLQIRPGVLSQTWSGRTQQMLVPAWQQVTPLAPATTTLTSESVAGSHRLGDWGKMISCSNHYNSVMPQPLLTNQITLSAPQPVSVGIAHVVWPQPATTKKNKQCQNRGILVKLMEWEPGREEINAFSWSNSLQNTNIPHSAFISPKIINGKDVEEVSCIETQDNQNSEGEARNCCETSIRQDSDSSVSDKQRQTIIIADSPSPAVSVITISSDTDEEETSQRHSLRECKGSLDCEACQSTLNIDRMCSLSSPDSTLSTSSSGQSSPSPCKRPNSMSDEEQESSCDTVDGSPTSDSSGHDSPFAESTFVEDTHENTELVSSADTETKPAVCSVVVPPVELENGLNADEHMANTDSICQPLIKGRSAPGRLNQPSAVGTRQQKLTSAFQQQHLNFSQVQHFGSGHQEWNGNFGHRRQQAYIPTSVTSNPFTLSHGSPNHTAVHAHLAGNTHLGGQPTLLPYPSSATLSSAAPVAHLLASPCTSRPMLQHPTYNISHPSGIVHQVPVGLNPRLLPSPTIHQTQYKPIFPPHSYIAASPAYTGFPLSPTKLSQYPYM
# In short: as §1
# NIM1K = NIM1K (Homo sapiens, UniProt Q8IY84); conditions: HEK-293T; 1 μM inhibitor, HEK293T cells
# In short: as §1
# NEK9 = NEK9 (Homo sapiens, UniProt Q8TD19); conditions: HEK-293T; 1 μM inhibitor, HEK293T cells
# Sequence of NEK9 (Q8TD19 whole entry): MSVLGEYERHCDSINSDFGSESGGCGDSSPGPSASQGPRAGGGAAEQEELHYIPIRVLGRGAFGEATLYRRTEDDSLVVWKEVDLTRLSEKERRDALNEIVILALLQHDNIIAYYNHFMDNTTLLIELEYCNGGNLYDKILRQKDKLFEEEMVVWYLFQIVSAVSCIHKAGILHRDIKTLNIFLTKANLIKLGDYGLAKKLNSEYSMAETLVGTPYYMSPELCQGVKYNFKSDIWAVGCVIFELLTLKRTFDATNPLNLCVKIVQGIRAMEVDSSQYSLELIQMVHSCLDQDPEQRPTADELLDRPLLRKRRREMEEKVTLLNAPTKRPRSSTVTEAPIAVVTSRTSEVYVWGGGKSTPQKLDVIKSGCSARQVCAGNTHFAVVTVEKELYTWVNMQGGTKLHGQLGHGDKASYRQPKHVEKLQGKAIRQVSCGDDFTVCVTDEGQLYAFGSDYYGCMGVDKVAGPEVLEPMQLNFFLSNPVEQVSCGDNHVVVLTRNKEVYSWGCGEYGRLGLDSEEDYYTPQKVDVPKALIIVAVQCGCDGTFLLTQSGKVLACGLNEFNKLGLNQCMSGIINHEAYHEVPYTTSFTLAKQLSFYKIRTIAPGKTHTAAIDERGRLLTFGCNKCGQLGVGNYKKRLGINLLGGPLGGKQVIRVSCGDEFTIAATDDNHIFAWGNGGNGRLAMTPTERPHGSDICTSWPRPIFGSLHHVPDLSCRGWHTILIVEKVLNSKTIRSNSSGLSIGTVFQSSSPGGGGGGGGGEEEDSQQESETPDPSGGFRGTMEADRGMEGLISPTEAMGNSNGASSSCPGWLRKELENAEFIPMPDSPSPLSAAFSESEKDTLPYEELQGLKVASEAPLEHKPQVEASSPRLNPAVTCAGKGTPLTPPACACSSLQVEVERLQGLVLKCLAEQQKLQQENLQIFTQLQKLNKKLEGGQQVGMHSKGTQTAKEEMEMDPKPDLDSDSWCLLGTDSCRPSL
# In short: as §1
# ICK = ICK (Homo sapiens, UniProt Q9UPZ9); conditions: HEK-293T; 1 μM inhibitor, HEK293T cells
# In short: as §1
# MELK = MELK (Homo sapiens, UniProt Q14680); conditions: HEK-293T; 1 μM inhibitor, HEK293T cells
# In short: as §1
# ERN1 = ERN1 (Homo sapiens, UniProt O75460); conditions: HEK-293T; 1 μM inhibitor, HEK293T cells
# In short: as §1
# WEE1 = WEE1 (Homo sapiens, UniProt P30291); conditions: HEK-293T; 1 μM inhibitor, HEK293T cells
# In short: as §1
smiles,measurement,setting,value
"CN1C(=O)[C@@H](N2CCc3c(nn(Cc4ccccc4)c3C(N)=O)C2=O)COc2cc(Cl)ccc21 [Compound 10, (S)-2-benzyl-6-(8-chloro-5-methyl-4-oxo-2,3,4,5-tetrahydrobenzo[b][1,4]oxazepin-3-yl)-7-oxo-4,5,6,7-tetrahydro-2H-pyrazolo[3,4-c]pyridine-3-carboxamide]",receptor occupancy at 1 µM,HIPK4,1.53%
same,receptor occupancy at 1 µM,TNNI3K,-0.0649%
same,receptor occupancy at 1 µM,HIPK2,16%
same,receptor occupancy at 1 µM,RPS6KA3,-0.166%
same,receptor occupancy at 1 µM,RET,-7.79%
same,receptor occupancy at 1 µM,GAK,0.954%
same,receptor occupancy at 1 µM,STK17B,8%
same,receptor occupancy at 1 µM,BMP2K,-6.67%
same,receptor occupancy at 1 µM,RPS6KA6,7.04%
same,receptor occupancy at 1 µM,MAST3,3.64%
same,receptor occupancy at 1 µM,CSNK1A1L,10.7%
same,receptor occupancy at 1 µM,CDK20,0.735%
same,receptor occupancy at 1 µM,AURKB,-2.1%
same,receptor occupancy at 1 µM,CDK5,-9.43%
same,receptor occupancy at 1 µM,AXL,2.28%
same,receptor occupancy at 1 µM,TNK2(iso1),4.21%
same,receptor occupancy at 1 µM,MAP4K5,16.7%
same,receptor occupancy at 1 µM,PTK2B,-1.12%
same,receptor occupancy at 1 µM,EPHA1,2.07%
same,receptor occupancy at 1 µM,SNF1LK2,4.84%
same,receptor occupancy at 1 µM,ABL2,6.33%
same,receptor occupancy at 1 µM,PKMYT1,-7.45%
same,receptor occupancy at 1 µM,BRSK1,3.37%
same,receptor occupancy at 1 µM,ULK2,2.12%
same,receptor occupancy at 1 µM,MAP3K2,-2.55%
same,receptor occupancy at 1 µM,STK36,-3.44%
same,receptor occupancy at 1 µM,EPHA6,-0.834%
same,receptor occupancy at 1 µM,LTK,-4.01%
same,receptor occupancy at 1 µM,MAP3K4,5.69%
same,receptor occupancy at 1 µM,MAPK11,-1.99%
same,receptor occupancy at 1 µM,HIPK3,11.8%
same,receptor occupancy at 1 µM,NIM1K,5.36%
same,receptor occupancy at 1 µM,NEK9,3.71%
same,receptor occupancy at 1 µM,ICK,3.76%
same,receptor occupancy at 1 µM,MELK,13.7%
same,receptor occupancy at 1 µM,ERN1,-1.52%
same,receptor occupancy at 1 µM,WEE1,-7.33%

# — article PMC12090182, “Repurposing of the RIPK1-Selective Benzo[1,4]oxazepin-4-one Scaffold for the Development of a Type III LIMK1/2 Inhibitor” (ACS Chemical Biology, 2025)
